# According to US20100190717A1, “USE OF MELANIN CONCENTRATING HORMONE AND MET-ENKEPHALIN AS THERAPEUTIC AGENTS” (priority 2007, published 2010):
# Ends that are not written are not given here.
# Experiments:
# [1] = test system: HCMV strain AD169; assay: HCMV plaque formation assay in MRC-5 cells; settings: for inhibition of HCMV plaque formation compared to the virus control: 10 micrograms per ml, 7-10 days
# [2] = test system: hepatitis B virus (HBV) ayw strain; assay: HBV assay in HepG2-2.2.15 cells (TaqMan PCR of secreted HBV DNA); type: cell-based; settings: 10 micrograms per ml; HepG2-2.2.15, six days
# [3] = test system: Interferon-γ (IFN-γ) in spleen cells; assay: Th1/Th2 cytokine profiling assay: IFN-γ; type: cell-based, Balb/c mice; settings: 10 micrograms per ml; Ovalbumin-restimulated spleen cells, 72 hours
# [4] = test system: Primary Human endothelial cells (HUVEC); assay: Endothelial cell migration assay; type: cell-based; settings: 10 micrograms per ml, 22 hours
# Protocol: Thereafter, designated concentration of testing peptides—10 micrograms per ml—was added in duplicate wells.
# [5] = test system: Tumor Necrosis Factor-α (TNF-α) in spleen cells; assay: Th1/Th2 cytokine profiling assay: TNF-α; type: cell-based, Balb/c mice; settings: 10 micrograms per ml; Ovalbumin-restimulated spleen cells, 72 hours
# [6] = test system: Interleukin-2 (IL-2) in spleen cells; assay: Th1/Th2 cytokine profiling assay: IL-2; type: cell-based, Balb/c mice; settings: 10 micrograms per ml; Ovalbumin-restimulated spleen cells, 72 hours
# [7] = test system: Human Peripheral Blood Mononuclear Cells (PBMC), B cell proliferation; assay: B cell proliferation assay (SAC plus Interleukin-2 stimulated PBMC, 3H-thymidine); type: cell-based; settings: 10 micrograms per ml
# Protocol: Human Peripheral Blood Mononuclear Cells (PBMC) were obtained from normal human donors. The B cell proliferation was induced by stimulation of the cells with the B cell mitogen Staphylococcus aureus Cowans I (SAC) plus Interleukin-2, either in the absence (positive proliferation control), or in the presence of test peptides—10 micrograms per ml—to examine their effects on the B cell response. 10^5/well PBMC were plated in 96-well microtiter plates and assayed in duplicate with the peptides. […] At the end of incubation time, the plates were harvested and the cells counted by liquid scintillation for the incorporation of ^3H-thymidine as a measure of B cell proliferation.
# [8] = test system: Human A549 cells; assay: Apoptosis prevention assay (C2 ceramide, Annexin-5); type: cell-based; settings: 10 micrograms per ml, A549, 30 min pretreatment
# Protocol: Human A549 cells (carcinomic human alveolar basal epithelial cells) were utilized in the experiments employing the Annexin-5 apoptosis assay. […] A549 cells were pretreated for 30 min with test peptides—10 micrograms per ml—followed by the exposure to C2 ceramide.
# [9] = test system: Interleukin-4 (IL-4) in spleen cells; assay: Th1/Th2 cytokine profiling assay: IL-4; type: cell-based, Balb/c mice; settings: 10 micrograms per ml; Ovalbumin-restimulated spleen cells, 72 hours
# [10] = test system: LPS-induced TNF-alpha production in human macrophages; assay: TNF alpha production assay (LPS-stimulated macrophages, ELISA); type: cell-based; settings: 10 micrograms per ml; LPS 200 ng/ml, overnight
# Text: Not stimulated macrophages served as negative background control.
# [11] = test system: HUVEC; assay: Endothelial tube formation assay; type: cell-based, human; settings: 10 micrograms per ml, 20 hours
# Text: Positive control was vehicle only.
# [12] = test system: Interleukin-5 (IL-5) in spleen cells; assay: Th1/Th2 cytokine profiling assay: IL-5; type: cell-based, Balb/c mice; settings: 10 micrograms per ml; Ovalbumin-restimulated spleen cells, 72 hours
# Text: The Balb/c mice (originated in 1923, it is a popular strain and is used in many different research disciplines. Also classified as an inbred from the production of 20 or more successive brother-sister matings, the Balb/c mouse is albino and small in size) were immunized on Days 1, 15, and 29 with Ovalbumin (Ovalbumin is the main protein found in egg white, commonly used to stimulate an immunological reaction in test animals) in PBS (5 micrograms/injection). On day 50, spleens of the mice were harvested (3 weeks after last boost with Ovalbumin). Cells were cultured (2×10^5/well in triplicate) and incubated with culture medium or test peptides—10 micrograms per ml—for 30 min. Thereafter, additional Ovalbumin was added to the cells at 10 micrograms/ml for in vitro restimulation of the cells. 72 hours later, cell supernatants were harvested and assayed using the Becton Dickinson Mouse Th1/Th2 Cytokine CBA Kit. This kit can be used to measure Interleukin-2 (IL-2), Interleukin-4 (IL-4), Interleukin-5 (IL-5), Interferon-γ (IFN-γ), and Tumor Necrosis Factor-α (TNF-α) protein levels in a single sample. The kit performance has been optimized for analysis of physiologically relevant concentrations (μg/ml levels) of specific cytokine proteins in tissue culture supernatants and serum samples.
Compound,antiviral activity of positive control compound (HCMV) ([1]; positive control),inhibition of HBV replication on tested liver cells [2],IFNγ spleen cells; TH1 response (% of control) [3],inhibition of the migration of human endothelial cells [4] [%],TNF-a spleen cells; TH1 response (% of control) [5],IL-2 spleen cells (% of control) [6],decrease of the proliferation of specifically stimulated human B-cells [7] [%],prevention (reduction) of the ceramide-induced apoptosis on human lung cells [8],IL-4 spleen cells; TH2 response (% of control) [9],inhibition of the LPS-induced TNF-alpha production in human macrophages [10] [%],inhibition of the tube formation of endothelial cells [11] [%],IL-5 spleen cells; TH2 response (% of control) [12],inhibition of HCMV plaque formation compared to the virus control [1]
"Nc1nc(O)c2ncn(COC(CO)CO)c2n1 [Ganciclovir, reference compound]",expected levels of antiviral activity,,,,,,,,,,,,
Asp-Phe-Asp-Met-Leu-Arg-Cys-Met-Leu-Gly-Arg-Val-Tyr-Arg-Pro-Cys-Trp-Gln-Val-OH (DFDMLRCMLGRVYRPCWQV-OH; ends and bridges not checked) [peptide 1],,no effect,90.4 % of control,39,92.1 % of control,42.3 % of control,20.9,did not show any reducing or increasing effect,85.9 % of control,20.6,19,78.8 % of control,did not inhibit
Tyr-Gly-Gly-Phe-Met-OH [peptide 2],,no effect,64.9 % of control,,89.3 % of control,86.3 % of control,12.0,17.4%,100.4 % of control,28.4,25,67.5 % of control,did not inhibit
